This test addresses T1, [^3 H] GBR12935 binding in rat strialal crude membrane (Rattus norvegicus, UniProt P23977).
T1 construct: from tissue; host or cells: corpus striatum of Wistar male rat, crude membrane
The experiment in a line: [^3 H] GBR12935 binding in rat striatal crude membrane. Set-up: species or system rat (Wistar male). Particulars: 1 nM [^3 H] GBR12935, rat striatal crude membrane; for IC50: 4° C., 80 minutes. The protocol:
After a cold 50 mM Tris-citrate buffer (pH 7.4, including 120 mM NaCl and 4 mM MgCl2) was added to a corpus striatum taken out of a Wistar male rat aged 12-13 weeks (while keeping on ice) to homogenize the resultant mixture, the homogenate was subjected twice to centrifugation under chilling for 20 minutes at 48,000 g. The final sedimentation residue thus obtained was suspended again in the same buffer as that used above to conserve the suspension at -80° C.
After thawing this frozen suspension, the thawed suspension was diluted to one thousandth of the amount of the tissue with the same buffer as that used above. To 0.8 ml of this crude membrane sample, were added [^3 H] GBR12935 (final concentration: 1 nM) and individual test substances and amantadine which is in clinical use at present (developing the concentration within a range of from 10^-3 to 10^-9 M) to 1 ml in total. Each of the resulting sample mixtures was incubated at 4° C. for 80 minutes in a plastic tube. After the incubation, the mixture was filtered by means of suction on a glass filter (Whatman GP/B) soaked in a 0.1% BSA, and the filter was washed three times with 3 ml of cold 0.9% NaCl. The thus-obtained filter was placed in a vial, and 10 ml of Aquazol-2 were added to conserve the filter overnight. Thereafter, the radioactivity of the sample was measured by a liquid scintillation counter. An IC50 value and a Hill coefficient were determined from the obtained uptake inhibition curve as to each of the test samples.

Structures can show the parent of a compound that is named as a salt.

Broadly, the IC50 is the concentration at which inhibition is half-maximal. Lower therefore signals greater potency in that assay.

T1 sequence (P23977 whole entry): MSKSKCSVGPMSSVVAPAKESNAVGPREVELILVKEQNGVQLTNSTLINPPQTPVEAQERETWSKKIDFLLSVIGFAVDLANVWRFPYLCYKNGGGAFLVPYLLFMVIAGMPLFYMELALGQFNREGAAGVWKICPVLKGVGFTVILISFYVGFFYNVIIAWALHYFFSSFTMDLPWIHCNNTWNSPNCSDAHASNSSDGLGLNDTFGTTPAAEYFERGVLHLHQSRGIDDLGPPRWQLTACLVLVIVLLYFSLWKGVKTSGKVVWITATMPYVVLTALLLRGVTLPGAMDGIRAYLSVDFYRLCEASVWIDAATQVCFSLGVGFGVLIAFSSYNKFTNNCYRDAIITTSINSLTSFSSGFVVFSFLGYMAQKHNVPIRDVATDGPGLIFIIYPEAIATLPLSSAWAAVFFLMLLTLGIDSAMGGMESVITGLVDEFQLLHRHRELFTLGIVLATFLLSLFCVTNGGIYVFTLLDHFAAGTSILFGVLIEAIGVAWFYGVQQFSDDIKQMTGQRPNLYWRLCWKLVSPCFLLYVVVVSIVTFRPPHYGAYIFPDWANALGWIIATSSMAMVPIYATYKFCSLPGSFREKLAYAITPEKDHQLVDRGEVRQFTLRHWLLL

As for `OC(CNc1ccccc1)CN1CCN(CCCC(c2ccc(F)cc2)c2ccc(F)cc2)CC1` (single isomer, unassigned; (+)) [Compound 16, (+)-1-[4,4-Bis(4-fluoro-phenyl)butyl]-4-(2-hydroxy-3-phenylaminopropyl)piperazinedihydrochloride], the “Hill coefficient (nH)” value is reported as 0.57 ± 0.04 and the IC50 amounted to 0.002 ± 0.00053 µM.
For the compound `OC(CNc1ccccc1)CN1CCN(CCCC(c2ccc(F)cc2)c2ccc(F)cc2)CC1` (single isomer, unassigned; (-)) [Compound 15, (-)-1-[4,4-Bis(4-fluoro-phenyl)butyl]-4-(2-hydroxy-3-phenylaminopropyl)piperazinedihydrochloride], the “Hill coefficient (nH)” value was 0.72 ± 0.05 and the IC50 was 0.002 ± 0.0001 µM.
In the case of `NC12CC3CC(CC(C3)C1)C2` [Amantadine, amantadine, reference compound], the “Hill coefficient (nH)” value is 1.36 ± 0.08. Besides, the IC50 (amantadine line in μM) stood at 819 ± 30.9 µM.
On to `OC(CNc1ccccc1)CN1CCN(C(c2ccc(F)cc2)c2ccc(F)cc2)CC1` (centres unmarked) [Compound 2, 1-[Bis(4-fluorophenyl)methyl]-4-(2-hydroxy-3-phenylamino-propyl)piperazine dihydro-chloride], for which the “Hill coefficient (nH)” value came to 0.66 ± 0.05 and the IC50 came to 0.02 ± 0.003 µM.
Consider `Cl.Cl.OC(CNc1ccc(F)cc1)CN1CCN(CCCC(c2ccc(F)cc2)c2ccc(F)cc2)CC1` (centres unmarked) [Compound 9, 1-[4,4-Bis(4-fluorophenyl)-butyl]-4-[3-(4-fluorophenyl-amino)-2-hydroxypropyl]-piperazine dihydrochloride], for which the “Hill coefficient (nH)” value is reported as 0.74 ± 0.01 and the 50% inhibitory concentration (IC50) came to 0.004 ± 0.00023 µM.
In the same order, the values of `Cl.Cl.OC(CNc1ccc(Cl)cc1)CN1CCN(CCCC(c2ccc(F)cc2)c2ccc(F)cc2)CC1` (centres unmarked) [Compound 10, 1-[4,4-Bis(4-fluorophenyl)-butyl]-4-[3-(4-chlorophenyl-amino)-2-hydroxypropyl]-piperazine dihydrochloride] are 0.82 ± 0.03 and 0.003 ± 0.00032 µM.
`COc1cc(NCC(O)CN2CCN(CCCC(c3ccc(F)cc3)c3ccc(F)cc3)CC2)cc(OC)c1OC.O=C(O)/C=C\C(=O)O.O=C(O)/C=C\C(=O)O` (centres unmarked) [Compound 11, 1-[4,4-Bis(4-fluorophenyl)-butyl]-4-[2-hydroxy-3-(3,4,5-trimethoxyphenylamino)propyl]-piperazine dimaleate]: the “Hill coefficient (nH)” value worked out at 0.79 ± 0.04 and the half-inhibitory concentration (IC50) stood at 0.043 ± 0.00532 µM.
`OC(CNc1ccc(Cl)c(Cl)c1)CN1CCN(CCCC(c2ccc(F)cc2)c2ccc(F)cc2)CC1` (centres unmarked) [Compound 12, 1-[4,4-Bis(4-fluorophenyl)-buyl]-4-[3-(3,4-dichloro-phenylamino)-2-hydroxy-propyl]piperazinedihydrochloride]: the “Hill coefficient (nH)” value is recorded as 0.74 ± 0.03 and the half-maximal inhibitory concentration (IC50) is 0.012 ± 0.00072 µM.
In the case of `COc1ccc(NCC(O)CN2CCN(CCCC(c3ccc(F)cc3)c3ccc(F)cc3)CC2)cc1.Cl.Cl` (centres unmarked) [Compound 13, 1-[4,4-Bis(4-fluorophenyl)-butyl]-4-(2-hydroxy-3-(4-methoxyphenylamino)propyl]-piperazine dihydrochloride], the “Hill coefficient (nH)” value amounted to 0.52 ± 0.02 and the 50% inhibitory concentration (IC50) is 0.003 ± 0.00016 µM.
On to `Cc1ccc(NCC(O)CN2CCN(CCCC(c3ccc(F)cc3)c3ccc(F)cc3)CC2)cc1.Cl.Cl` (centres unmarked) [Compound 14, 1-[4,4-Bis(4-fluorophenyl)-butyl]-4-[2-hydroxy-3-(4-methylphenylamino)propyl]-piperazine dihydrochloride], for which the “Hill coefficient (nH)” value was found to be 0.65 ± 0.03 and the concentration for half-maximal inhibition (IC50) was determined as 0.004 ± 0.00041 µM.
For `O=C(O)/C=C\C(=O)O.O=C(O)/C=C\C(=O)O.O=C(O)/C=C\C(=O)O.OC(CNc1ccncc1)CN1CCN(CCCC(c2ccc(F)cc2)c2ccc(F)cc2)CC1` (centres unmarked) [Compound 17, 1-[4,4-Bis(4-fluorophenyl)-butyl]-4-[2-hydroxy-3-(4-pyridylamino)propyl]-piperazine trimaleate] the same measures were 0.74 ± 0.04 and 0.034 ± 0.002 µM.
For `OC(CNc1ccccc1)CN1CCN(CCC(c2ccc(F)cc2)c2ccc(F)cc2)CC1` (centres unmarked) [Compound 18, 1-[3,3-Bis(4-fluorophenyl)-propyl]-4-(2-hydroxy-3-phenylaminopropyl)piperazinedihydrochloride], the “Hill coefficient (nH)” value was 0.67 ± 0.04 and the half-maximal inhibitory concentration (IC50) came to 0.007 ± 0.00065 µM.
For `OC(CNc1ccccc1)CN1CCN(CC(c2ccccc2)c2ccccc2)CC1` (centres unmarked) [Compound 19, 1-(2,2-Diphenylethyl)-4-(2-hydroxy-3-phenylamino-propyl)piperazinedihydrochloride], the “Hill coefficient (nH)” value was determined as 0.76 ± 0.02 and the half-maximal inhibitory concentration (IC50) came out at 0.028 ± 0.002 µM.
For `Cl.Cl.O=[N+]([O-])c1ccc(NCC(O)CN2CCN(CCCC(c3ccc(F)cc3)c3ccc(F)cc3)CC2)cc1` (centres unmarked) [Compound 20, 1-[4,4-Bis(4-fluorophenyl)-butyl]-4-[2-hydroxy-3-(4-nitrophenylamino)propyl]-piperazine dihydrochloride] the same measures were 0.69 ± 0.04 and 0.008 ± 0.0005 µM.
In the case of `OC(CNc1ccccc1)CN1CCN(CCCCC(c2ccc(F)cc2)c2ccc(F)cc2)CC1` (centres unmarked) [Compound 21, 1-[5,5-Bis(4-fluorophenyl)-pentyl]-4-(2-hydroxy-3-phenylaminopropyl)piperazinedihydrochloride], the “Hill coefficient (nH)” value amounted to 0.89 ± 0.07 and the concentration for half-maximal inhibition (IC50) came to 0.006 ± 0.00032 µM.
In the case of `CC(C)(C)c1cc(NCC(O)CN2CCN(CCCC(c3ccc(F)cc3)c3ccc(F)cc3)CC2)cc(C(C)(C)C)c1O` (centres unmarked) [Compound 22, 1-[4,4-Bis(4-fluorophenyl)-butyl]-4-[3-(3,5-di-tert-butyl-4-hydroxyphenylamino)-2-hydroxypropyl]piperazinetrimaleate], the “Hill coefficient (nH)” value came to 0.78 ± 0.07 and the 50% inhibitory concentration (IC50) is 0.087 ± 0.007 µM.
Turning to `Nc1ccc(NCC(O)CN2CCN(CCCC(c3ccc(F)cc3)c3ccc(F)cc3)CC2)cc1` (centres unmarked) [Compound 23, 1-[3-(4-Aminophenylamino)-2-hydroxypropyl]-4-(4,4-bis(4-fluorophenyl)butyl]piperazinetrimaleate], the “Hill coefficient (nH)” value was determined as 0.64 ± 0.09 and the half-inhibitory concentration (IC50) was 0.037 ± 0.009 µM.
For `CN(C)c1ccc(NCC(O)CN2CCN(CCCC(c3ccc(F)cc3)c3ccc(F)cc3)CC2)cc1` (centres unmarked) [Compound 24, 1-[4,4-Bis(4-fluorophenyl)-butyl]-4-[3-(4-dimethyl-aminophenylamino)-2-hydroxy-propyl]piperazine dimaleate] the same measures were 0.94 ± 0.10 and 0.109 ± 0.019 µM.
For `O=C(O)/C=C\C(=O)O.O=C(O)/C=C\C(=O)O.Oc1ccc(NCC(O)CN2CCN(CCCC(c3ccc(F)cc3)c3ccc(F)cc3)CC2)cc1` (centres unmarked) [Compound 25, 1-[4,4-Bis(4-fluorophenyl)-butyl]-4-[2-hydroxy-3-(4-hydroxyphenylamino)propyl]-piperazine dimaleate], the “Hill coefficient (nH)” value is given as 0.63 ± 0.09 and the half-maximal inhibitory concentration (IC50) was 0.01 ± 0.003 µM.

Source of the values: patent US5747493A, “Dopamine re-uptake inhibitor” (Pola Chemical Industries, Inc., priority 1993, dated 1998).
